pIC50: −log10 of the molar value.
Tested on: VEGF-stimulated HUVEC proliferation (Human Umbilical Vein Endothelial cells)
Assay: HUVEC Proliferation Assay
Format: cell-based
Details: 72 h, CyQuant dye, read-out: inhibited VEGF-stimulated HUVEC proliferation at a level (IC50 values determined)
Description: Human Umbilical Vein Endothelial cells are purchased from Clonetics, Inc., as cryopreserved cells harvested from a pool of donors. These cells, at passage 1, are thawed and expanded in EBM-2 complete medium, until passage 2 or 3. The cells are trypsinized, washed in DMEM+10% FBS+antibiotics, and spun at 1000 rpm for 10 min. Prior to centrifugation of the cells, a small amount is collected for a cell count. After centrifugation, the medium is discarded, and the cells are resuspended in the appropriate volume of DMEM+10% FBS+antibiotics to achieve a concentration of 3×10^5 cells/mL. Another cell count is performed to confirm the cell concentration. The cells are diluted to 3×10^4 cells/mL in DMEM+10% FBS+antibiotics, and 100 μL of cells are added to a 96-well plate. The cells are incubated at 37° C. for 22 h.
Prior to the completion of the incubation period, compound dilutions are prepared. Five-point, five-fold serial dilutions are prepared in DMSO, at concentrations 400-fold greater than the final concentrations desired. 2.5 μL of each compound dilution are diluted further in a total of 1 mL DMEM+10% FBS+antibiotics (400× dilution). Medium containing 0.25% DMSO is also prepared for the 0 μM compound sample. At the 22 h timepoint, the medium is removed from the cells, and 100 μL of each compound dilution is added. The cells are incubated at 37° C. for 2-3 h.
During the compound pre-incubation period, the growth factors are diluted to the appropriate concentrations. Solutions of DMEM+10% FBS+antibiotics, containing either VEGF or bFGF at the following concentrations: 50, 10, 2, 0.4, 0.08, and 0 ng/mL are prepared. For the compound-treated cells, solutions of VEGF at 550 ng/mL or bFGF at 220 ng/mL for 50 ng/mL or 20 ng/mL final concentrations, respectively, are prepared since 10 μL of each will be added to the cells (110 μL final volume). At the appropriate time after adding the compounds, the growth factors are added. VEGF is added to one set of plates, while bFGF is added to another set of plates. For the growth factor control curves, the media on wells B4-G6 of plates 1 and 2 are replaced with media containing VEGF or bFGF at the varying concentrations (50-0 ng/mL). The cells are incubated at 37° C. for an additional 72 h.
At the completion of the 72 h incubation period, the medium is removed, and the cells are washed twice with PBS. After the second wash with PBS, the plates are tapped gently to remove excess PBS, and the cells are placed at −70° C. for at least 30 min. The cells are thawed and analyzed using the CyQuant fluorescent dye (Molecular Probes C-7026), following the manufacturer's recommendations. The plates are read on a Victor/Wallac 1420 workstation at 485 nm/530 nm (excitation/emission). Raw data are collected and analyzed using a 4-parameter fit equation in XLFit. IC50 values are then determined.

## CC(Nc1ccccc1C(=O)Nc1ccc2c(c1)CN(C(=O)OC(C)(C)C)CC2(C)C)c1ccnc(N)n1 (stereo not drawn) [Example 126, tert-Butyl 7-{2-[1-(2-amino-pyrimidin-4-yl)-ethylamino]-benzoylamino}-4,4-dimethyl-3,4-dihydro-1H-isoquinoline-2-carboxylate]
  pIC50: > 6.00

## CNc1nccc([C@@H](C)Nc2ccccc2C(=O)Nc2ccc3c(c2)N(C(C)=O)CC32CC2)n1 [Example 132, N-(1-Acetyl-1′,2′-dihydrospiro[cyclopropane-1,3′-[3H]indol]-6′-yl)-2-[[(1R)-1-[2-(methylamino)-4-pyrimidinyl]ethyl]amino]-benzamide]
  pIC50: > 6.00

## CC(=O)N1CC(C)(C)c2ccc(NC(=O)c3ccccc3NCc3cc[n+]([O-])cc3)cc21 [Example 10, N-(1-Acetyl-3,3-dimthyl-2,3-dihydro-1H-indol-6-yl)-2-[(1-oxy-pyridin-4-ylmethyl)-amino]-benzamide]
  pIC50: > 6.00

## CC1(C)CNCc2cc(NC(=O)c3cc(F)c(F)cc3NCc3ccc(F)cc3)ccc21 [Example 108, N-(4,4-Dimethyl-1,2,3,4-tetrahydro-isoquinolin-7-yl)-3,4-difluoro-6-(4-fluoro-benzylamino)-benzamide]
  pIC50: > 6.00

## CN1CCN(C(=O)N2CC(C)(C)c3ccc(NC(=O)c4ccccc4NCc4ccc(F)cc4)cc32)CC1 [Example 8, N-[3,3-Dimethyl-1-(4-methyl-piperazine-1-carbonyl)-2,3-dihydro-1H-indol-6-yl]-2-(4-fluoro-benzylamino)-benzamide]
  pIC50: > 6.00

## CC(Nc1ccccc1C(=O)Nc1ccc2c(c1)CNCC2(C)C)c1ccnc(N)n1 (stereo not drawn) [Example 127, 2-[1-(2-Amino-pyrimidin-4-yl)-ethylamino]-N-(4,4-dimethyl-1,2,3,4-tetrahydro-isoquinolin-7-yl)-benzamide]
  pIC50: > 7.00

## CC1(C)CNCc2cc(NC(=O)c3ccccc3NCc3c[nH]c4ncccc34)ccc21 [Example 113, N-(4,4-Dimethyl-1,2,3,4-tetrahydro-isoquinolin-7-yl)-2-[(1H-pyrrolo [2,3-b]pyridin-3-ylmethyl)-amino]-benzamide]
  pIC50: > 6.00

## CC(=O)N1Cc2cc(NC(=O)c3ccccc3NCc3ccnc4ccccc34)ccc2C(C)(C)C1 [Example 13, N-(2-Acetyl-4,4-dimthyl-1,2,3,4-tetrahydro-isoquinolin-7-yl)-2-[(quinolin-4-ylmethyl)-amino]-benzamide]
  pIC50: > 6.00

## CNc1nccc([C@H](C)Nc2ccccc2C(=O)Nc2ccc3c(c2)CNCC3(C)C)n1 [Example 130, (S)—N-(4,4-Dimethyl-1,2,3,4-tetrahydro-isoquinolin-7-yl)-2-[1-(2-methylamino-pyrimidin-4-yl)-ethylamino]-benzamide]
  pIC50: > 6.00

## CC1(C)CNCc2cc(NC(=O)c3ccccc3NCc3cccc4nccnc34)ccc21 [Example 124, N-(4,4-Dimethyl-1,2,3,4-tetrahydro-isoquinolin-7-yl)-2-[(quinoxalin-5-ylmethyl)-amino]-benzamide]
  pIC50: > 6.00

## CC(=O)N1CC(C)(C)c2ccc(NC(=O)c3ccccc3NCc3ccc(F)cc3)cc21 [Example 3, N-(1-Acetyl-3,3-dimethyl-2,3-dihydro-1H-indol-6-yl)-2-(4-fluoro-benzylamino)-benzamide]
  pIC50: > 6.00

## CC1(C)CNCc2cc(NC(=O)c3ccc(F)cc3NCc3ccc(F)cc3)ccc21 [Example 107, N-(4,4-Dimethyl-1,2,3,4-tetrahydro-isoquinolin-7-yl)-4-fluoro-6-(4-fluoro-benzylamino)-benzamide]
  pIC50: > 6.00
